This is an account of results in US9018248B2, “Fatty acid derivatives of catechins and methods of their use” (Genesis Group Inc., priority 2010, dated 2015).

The nature of assay [1]: Metal chelation capacity (ferrozine). The settings on record: test compounds 1 mM ethanolic solution, FeCl2, ferrozine. As for the experimental part:
(§1) An ORAC (Oxygen Radical Absorbance Capacity) assay was carried out using a Fluostar Optima plate reader (BMG Labtech, Durham, N.C.) equipped with an incubator and two injector pumps. A modified method for lipophilic antioxidants was followed, in which randomly methylated cyclodextrin (RMCD) was used as water solubility enhancer, as described by Huang et al, J. Agric. Food Chem., 2002, 50, 1815-1821. Trolox standards (6.25-50 μM) and samples (0.25 μM) were dissolved in acetone/water (1:1, v/v) containing 7% RMCD. Fluorescein and […] [2,2′-azobis(2-aminopropane)dihydrochloride] were used as the probe and radical generator, respectively. Twenty microliters of trolox standard or test compound solutions (7% RMCD used as a control) were added into each well of a 96-well black microplate, followed by addition of fluorescein. The plate was incubated at 37° C. for 15 min and then AAPH in buffer was injected into the wells. The conditions used were as follows: 0.3 s position delay, 8 s orbital shaking before each cycle with 4 mm width, 210 s cycle time, and 25 cycles. Fluorescence was measured at an excitation wavelength of 485 nm and emission of 520 nm. A standard curve was plotted and ORAC values for test compounds were obtained as mol of trolox equivalents (TE) per mol of test compound. (3b) Reducing Power The reducing power of EGCG and its derivatives (compounds 1a-1c) was determined according to Oyaizu (1986). One milliliter of test compounds (1 mM in 95% ethanol) was mixed with 2.5 ml of phosphate buffer solution (PBS, 0.2 M, pH 6.6) and 2.5 ml of a 1% solution of potassium ferricyanide, K3Fe(CN)6. The mixture was incubated at 50° C. for 20 min. […] The content was mixed well and the absorbance was recorded at 700 nm. Higher absorbance of the reaction mixture indicates greater reducing power. […] (3c) Metal Chelation The metal chelation capacity was measured following a procedure by Decker E. A. et al., J. Agric. […] The absorbance was measured afterwards at 562 nm. A blank without ferrozine was run for each compound, since the antioxidant-Fe^2+ complex gives a colour that might interfere with the absorbance reading. Metal chelation capacity was calculated using the following equation: % chelation=[1−(Abs.sample−Abs.blank)/Abs.control]×100 where, control was devoid of test compounds, while blank contained no ferrozine. (3d) DPPH Antioxidant activity of the lipophilic EGCG derivatives was ALSO evaluated as DPPH (1,1-diphenyl-2-picrylhydrazyl) radical scavenging capacity using EGCG as the reference. DPPH scavenging capacity of test compounds was determined by EPR (electron paramagnetic resonance) according to Madhujith and Shahidi (16) with slight modifications. […] The spectrum was recorded after 1 min. […]

Assay [2] is described as follows: ORAC (Oxygen Radical Absorbance Capacity) assay for lipophilic antioxidants. The conditions noted are these: samples 0.25 μM, 7% RMCD, fluorescein probe. As for the experimental part:
as §1

Take `CCCCCCCCCCCCCCCCCC(=O)Oc1cc(C(=O)OC2Cc3c(O)cc(O)cc3OC2c2cc(OC(=O)CCCCCCCCCCCCCCCCC)c(O)c(OC(=O)CCCCCCCCCCCCCCCCC)c2)cc(OC(=O)CCCCCCCCCCCCCCCCC)c1O` (centres unmarked) [Compound 1a, EGCG stearate]: the Metal chelation in assay [1] is recorded as 8.33%. The compound also showed an ORAC in assay [2] of 51.56 mol trolox eq./mol.
The corresponding values for `CCC=CCC=CCC=CCC=CCC=CCCCC(=O)Oc1cc(C(=O)OC2Cc3c(O)cc(O)cc3OC2c2cc(OC(=O)CCCC=CCC=CCC=CCC=CCC=CCC)c(O)c(OC(=O)CCCC=CCC=CCC=CCC=CCC=CCC)c2)cc(OC(=O)CCCC=CCC=CCC=CCC=CCC=CCC)c1O` (centres unmarked) [Compound 1b] are 35.42% and 81.52 mol trolox eq./mol.
For `CCC=CCC=CCC=CCC=CCC=CCC=CCCC(=O)Oc1cc(C(=O)OC2Cc3c(O)cc(O)cc3OC2c2cc(OC(=O)CCC=CCC=CCC=CCC=CCC=CCC=CCC)c(O)c(OC(=O)CCC=CCC=CCC=CCC=CCC=CCC=CCC)c2)cc(OC(=O)CCC=CCC=CCC=CCC=CCC=CCC=CCC)c1O` (centres unmarked) [Compound 1c], the Metal chelation in assay [1] was determined as 28.13%. Further, the ORAC in assay [2] was 84.70 mol trolox eq./mol.
The corresponding values for `O=C(O[C@@H]1Cc2c(O)cc(O)cc2O[C@@H]1c1cc(O)c(O)c(O)c1)c1cc(O)c(O)c(O)c1` [EGCG, Epigallocatechin gallate, reference compound] are 10.42% and 14.97 mol trolox eq./mol.
